Assay results reported in patent US20030108490A1, “Method and test kit for avoiding long-term failures in root canal treatments” (priority 2000, published 2003).
Where “and” joins values, the source holds several entries; their conditions need not be identical. Identical values can stand only once. Like-named read-outs stand apart in the source and are kept apart here.

Assays:
bacteria in the canals = details: after 1-2 week medication, in most cases; cited from earlier work
MMP-8 = details: for MMP-8 detected in the root canals: pooled data
From the text: 10 patients (11 teeth), with noncontributory medical histories, suffering from apical periodontitis, were selected for the collection of the root canal exudate samples. […] The sample collection was done with the approval of Ethical Committee of Helsinki University Faculty of Medicine, and with the patient's informed consent. The samples were collected during three consecutive appointments with two-week intervals, during which the root canal treatment was completed.
Primary access to the pulp and root canals was made according to regular treatment protocol. The instrumentation of the root canal was started with size 20 or 25 ISO file. X-ray was taken to determine the preparation length. At that time point, a sterile paper point was inserted into the root canal up to the preparation length for two minutes to absorb exudate from the root canal and periapical lesion. The root canals were then instrumented according to standard root canal treatment protocol. Finally, CaOH2 paste was inserted into the canal, and the access cavity was sealed.
After two weeks the root canals were reopened. After quick drying of the canals, a sterile paper point was inserted into the canal for two min for the sample collection. If the canal appeared dry, a drop of sterile saline was inserted to allow the absorption of the sample into the paper point. The root canal was then rinsed, dried and CaOH2 paste was inserted into the canal. After two weeks the procedure for the sample collection was repeated, and the root canals were filled with gutta percha and sealer in normal fashion.
Concentration of MMP-8 in the samples was determined from the elution buffer by a time-resolved immunofluorescence assay as described previously (Hanemaaijer et al., 1997). The monoclonal MMP-8 specific 8708 and 8706 antibodies were used as a catching antibody and tracer antibody, respectively. The tracer antibody was labeled using europium chelate. The assay buffer contained 20 mM Tris-HCl, pH 7.5, 0.5 M NaCl, 5 mM CaCl2, 50 μM ZnCl2, 0.5% bovine serum albumin, 0.5% sodium azide, and 20 mg/l DTPA. Samples were diluted in assay buffer and incubated for one h, followed by incubation for one h with tracer antibody. Enhancement solution was added, and after 5 min fluorescence was measured using a 1234 Delfia Research Fluorometer (Wallac, Turku, Finland).
Kruskall-Wallis 1-way ANOVA was used to analyze the degree of difference in the MMP-8 levels between the different appointments within each sample site.

[1] = obturated after one week of intracanal disinfection; cited from earlier work

## [Ca+2].[OH-].[OH-] [Ca(OH)2, calcium hydroxide]
Bacteria in the canals
  cultivable bacteria in the canals: no cultivable bacteria
MMP-8; patients with initially high levels (over 1000 ng/ml), second appointment, after two weeks of treatment
  levels of MMP-8 in the exudate: undetectable levels
MMP-8; necrotic teeth, after mechanical preparation and first local medication (2nd visit)
  MMP-8 detected in the root canals: a relatively high amount of MMP-8 was detected
MMP-8; after renewal of the local medication for fortnight (3rd visit)
  MMP-8 detected in the root canals: no longer detected
MMP-8; two other patients with initial value of 0, second appointment
  levels of MMP-8 in the root canal samples: 100 to 1000 ng/mL
[1]
  teeth that failed to show any healing in the periapical lesion area after one year: 26% and 24%
